Assay results taken from patent publication US4990522A, “Esterified ephedrine derivatives with prolonged antiulcer activity” (Establissement Texcontor, priority 1987, dated 1991).
Where two headings read alike, the source gives them in different places.

Tests used:
[1] = Acute toxicity in rats, endoperitoneal administration (LD50, Lichtfield and Wilcoxon); parameters: species or system rat (Wistar); details: in vivo, ip, rat, mortality within eight days
Method: (§1) Acute toxicity was determined on Swiss albino mice having an average weight of about 20 grams and on Wistar rats having an average weight of 150±10 grams by endoperitoneal administration. All animals were kept fasting for 12 hours before the trial. For the trial, 10 animals, namely 5 males and 5 females, were used for each dose level.
(§2) The LD50 values, expressed as mg/kg, are calculated on the basis of the mortality determined within eight days from administration, in accordance with the Lichtfield and Wilcoxon method.

[2] = tested on: ulcers induced by cold stress; experiment: Antiulcer activity against ulcers induced by cold stress; assay type: in vivo, rat (Wistar); details: rat, oral
Method: 3. ANTIULCER ACTIVITY against ulcers induced by cold stress: This trial was carried out on Wistar rats weighing about 300 grams each.
The animals were divided randomly into groups of 10 animals each and kept without food for 18 hours before the trial, but had unrestricted water. […]
After ligature, the animals were placed in a refrigerator at a temperature of between 2° C. and 4° C. for two hours.
After this time the rats were sacrificed, their stomachs were withdrawn and opened along the small curvature, and the gastric mucosa checked.
The number of ulcers was counted and their relative diameters measured. From these individual data the mean value for each treatment group was obtained and the inhibition capacity calculated as a percentage relative to the control group, using the following formula: [formula] where C is the mean value in mm for the control group and T the mean value for the group treated with the derivative under examination.

[3] = Acute toxicity in mice, endoperitoneal administration (LD50, Lichtfield and Wilcoxon); parameters: species or system mouse (Swiss albino); details: in vivo, ip, mouse, mortality within eight days
Method: as §1, §2

[4] = tested on: ulcers induced by ligature of the pylorus; experiment: Antiulcer activity against ulcers induced by ligature of the pylorus (Shay test); assay type: in vivo, rat (Sprague Dawley); details: rat, oral
Method: 2. ANTIULCER ACTIVITY against ulcers induced by ligature of the pylorus (Shay test): Groups of 10 Sprague Dawley rats of body weight between 200 and 250 grams were placed in cages under conditions of standard temperature (21°±2° C.), standard relative humidity (60-70%) and standard light (12 hours per day).
The animals were fed with rat pellets and with water at will.
The derivatives to be tested were administered orally 6, 12, 24 and 36 hours before ligature of the pylorus, after dispersion in physiological solution using Tween 80 as dispersant in a quantity of 1% and carboxymethylcellulose in a quantity of 0.2%. The volume administered was 10 ml/kg.
Before ligature, the rats had been kept without food for 18 hours but with free access to water, the pylorus ligature then being made under ether anesthetic, with suture of the peritoneum and of the abdominal wall.
The animals were then kept without food or water, and 18 hours after ligature were sacrificed using chloroform, their stomachs then being withdrawn and opened along the small curvature.
The gastric surface was extended to observe the ulcers, the evaluation being made by measuring their maximum width.

[5] = prior art, cited from earlier work
[6] = species not given, prior art; cited from earlier work
[7] = 6 h before cold stress, read-out: ED50 by oral administration at 6 h before commencement of cold stress
[8] = 12 h before cold stress, * P < 0.05 versus WAS 4303 (so in the source), read-out: ED50 by oral administration at 12 h before commencement of cold stress
[9] = 24 h before cold stress, * P < 0.05 versus WAS 4303 (so in the source), read-out: ED50 by oral administration at 24 h before commencement of cold stress
[10] = 36 h before cold stress, * P < 0.05 versus WAS 4303 (so in the source), read-out: ED50 by oral administration at 36 h before commencement of cold stress
[11] = 6 h before pylorus ligature, read-out: ED50 by oral administration at 6 h before pylorus ligature
[12] = 12 h before pylorus ligature, * P < 0.05 versus WAS 4303 (so in the source), read-out: ED50 by oral administration at 12 h before pylorus ligature
[13] = 24 h before pylorus ligature, * P < 0.05 versus WAS 4303 (so in the source), read-out: ED50 by oral administration at 24 h before pylorus ligature
[14] = 36 h before pylorus ligature, * P < 0.05 versus WAS 4303 (so in the source), read-out: ED50 by oral administration at 36 h before pylorus ligature

Structure (SMILES)	LD50 at 192 h [1] [mg/kg]	ED50 [2, 7] [mg/kg]	ED50 [2, 8] [mg/kg]	ED50 [2, 9] [mg/kg]	ED50 [2, 10] [mg/kg]	LD50 at 192 h [3] [mg/kg]	ED50 [4, 11] [mg/kg]	ED50 [4, 12] [mg/kg]	ED50 [4, 13] [mg/kg]	ED50 [4, 14] [mg/kg]	antiulcer activity when administered intraperitoneally ([5]; intraperitoneal, experimental tests)	duration of activity [5]	LD50 for intraperitoneal administration [6] [mg/kg]
CCCCCCCCCC(=O)O[C@H](c1ccccc1)[C@H](C)N(C)CC=C1c2ccccc2CCc2ccccc21 (relative stereo) [ET 2001]	510	0.4	0.9	1.2	2.1	585	0.5	0.5	0.7	1.3			
C[C@@H]([C@H](OC(=O)c1cccnc1)c1ccccc1)N(C)CC=C1c2ccccc2CCc2ccccc21 (relative stereo) [ET 2003]	618	0.6	0.9	1.3	1.7	580	0.4	0.4	0.7	1.2			
C[C@@H]([C@H](OC(=O)c1cccs1)c1ccccc1)N(C)CC=C1c2ccccc2CCc2ccccc21 (relative stereo) [ET 2004]	681	0.6	0.8	1.4	1.8	630	0.5	0.4	0.6	1			
C[C@@H]([C@H](O)c1ccccc1)N(C)CC=C1c2ccccc2CCc2ccccc21 (relative stereo) [WAS 4304, reference compound]	87	0.4	1.6	2.5	2.8	127	0.2	1.1	1.8	2.4	very interesting antiulcer activity	very limited duration	115
C[C@@H]([C@H](OC(=O)C(N)Cc1cnc[nH]1)c1ccccc1)N(C)CC=C1c2ccccc2CCc2ccccc21 (some centres unmarked) [ET 2002]	590	0.7	1	1.4	1.9	535	0.4	0.5	0.8	1.1			
